Assay results published in PubChem BioAssay (NCI).
Values joined by “and” are separate entries in the source; they are usually repeats but may differ in a detail not shown here. Equal entries are not always repeated.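 Interpolation was linear, between the two tested concentrations surrounding the appropriate level; five concentrations were tested over 48 hours in 96-well plates. GI50 is the concentration that inhibits growth by half. At the TGI there is no net growth.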

Assays:
Test in all cases: growth of human tumour cells (NCI), 48 h
SF-539 CNS = system: SF-539 CNS
HOP-62 NSCLC = system: HOP-62 NSCLC
HCT-116 colon = system: HCT-116 colon
IGROV1 ovarian = system: IGROV1 ovarian
KM12 colon = system: KM12 colon
SK-OV-3 ovarian = system: SK-OV-3 ovarian
NCI-H460 lung = system: NCI-H460 lung
K-562 leukemia = system: K-562 leukemia
UACC-257 melanoma = system: UACC-257 melanoma
HCT-15 colon = system: HCT-15 colon

Structure (SMILES) | TGI (SF-539 CNS) | TGI (HOP-62 NSCLC) | TGI (HCT-116 colon) | TGI (IGROV1 ovarian) | TGI (KM12 colon) | TGI (SK-OV-3 ovarian) | TGI (NCI-H460 lung) | TGI (K-562 leukemia) | TGI (UACC-257 melanoma) | TGI (HCT-15 colon) | GI50 (SF-539 CNS) | GI50 (HOP-62 NSCLC) | GI50 (HCT-116 colon) | GI50 (IGROV1 ovarian) | GI50 (KM12 colon) | GI50 (SK-OV-3 ovarian) | GI50 (NCI-H460 lung) | GI50 (K-562 leukemia) | GI50 (UACC-257 melanoma) | GI50 (HCT-15 colon)
O=C(Nc1c(O)[nH]c(=S)[nH]c1=O)c1ccccn1 | > 100 µM | > 100 µM | > 100 µM | > 100 µM | > 100 µM | > 100 µM | > 100 µM | > 100 µM | > 100 µM | > 100 µM |  |  |  |  |  |  |  |  |  | 
CN(C)CC(/C(Cc1ccccc1)=N\NC(=O)C[n+]1ccccc1)c1ccccc1 (configuration not stated) | > 100 µM | > 100 µM | > 100 µM | > 100 µM | > 100 µM | > 100 µM | > 100 µM | > 100 µM | > 100 µM | > 100 µM |  |  |  |  |  |  |  |  |  | 
Cc1nc2ccc(CN(C)c3ccc(C(=O)N[C@@H](CCC(=O)O)C(=O)O)s3)cc2c(=O)[nH]1 |  | > 100 µM | > 100 µM | > 100 µM | > 100 µM | > 100 µM | > 100 µM | > 100 µM | > 100 µM | > 100 µM |  |  |  |  |  |  |  |  |  | 
OCCOc1ccc(-c2cc(-c3ccccn3)nc(-c3ccccn3)c2)cc1 | 2.26 µM | > 18.9 µM | > 43.7 µM | > 100 µM | > 100 µM | 2.17 µM | 3.69 µM | 11.4 µM | 12.9 µM | > 40.6 µM |  |  |  |  |  |  |  |  |  | 
O=C(O)c1ccccc1Cc1ccco1 | > 100 µM | > 100 µM | > 100 µM | > 100 µM | > 100 µM | > 100 µM | > 100 µM | > 100 µM | > 100 µM | > 100 µM |  |  |  |  |  |  |  |  |  | 
CC1=CC2CC(C)=C(CC[C@]3(C)CC[C@H]([C@@H](C)C(=O)O)OO3)C(C)(C)C2CC1 (some centres not stated) | 2.68 µM | 3.41 µM | 0.943 µM | 0.453 µM | 0.316 µM | 3.68 µM | 0.393 µM | 0.471 µM | 3.03 µM | 2 µM |  |  |  |  |  |  |  |  |  | 
Cn1cc(-c2nonc2-c2c[nH]c3ccccc23)c2ccccc21 | 1.07 µM | 17 µM | 10.5 µM | 18.3 µM | 8.74 µM | 18.4 µM | 7.78 µM | > 36.9 µM | 20.5 µM | 11.3 µM | 0.276 µM | 0.47 µM | 0.404 µM | 0.574 µM | 0.396 µM | 0.563 µM | 0.375 µM | 0.223 µM | 0.918 µM | 0.354 µM
C=CC(=O)Nc1ccc(Nc2nccc(-c3ccc(N4CCCC4)c(C#N)c3)n2)cc1 | > 25 µM | > 25 µM | > 25 µM | > 25 µM | > 25 µM | > 25 µM | > 25 µM | > 25 µM | 17 µM | 10.3 µM | 6.88 µM | 10.9 µM | 6.03 µM | 1.85 µM | > 25 µM | > 25 µM | 4.61 µM | 5.94 µM | 5.37 µM | 1.17 µM
O=C(CC1=Nc2nnc(-c3nnc4n3C(=O)C(CC(=O)c3cccnc3)=N4)n2C1=O)c1cccnc1 | > 100 µM | > 100 µM | > 100 µM | > 100 µM | > 100 µM | > 100 µM | > 100 µM | > 100 µM | > 100 µM | > 100 µM |  |  |  |  |  |  |  |  |  | 
N#C/C(=C\c1ccccc1O)C(N)=O | > 100 µM | > 100 µM | > 100 µM | > 100 µM | > 100 µM | > 100 µM | > 100 µM | > 100 µM | > 100 µM | > 100 µM |  |  |  |  |  |  |  |  |  | 
O=C1c2ccccc2C2(O)Nc3cc(O)ccc3C12O (configuration not stated) | > 100 µM | > 100 µM | > 100 µM | > 100 µM | > 100 µM | > 100 µM | > 100 µM | > 100 µM |  | > 100 µM |  |  |  |  |  |  |  |  |  | 
COc1cc(C(=O)OCCCCCCCCCCC[P+](c2ccccc2)(c2ccccc2)c2ccccc2)ccc1O |  |  | 1.09 µM |  |  | 5.5 µM |  |  | 1.54 µM | 2.97 µM |  |  | 0.273 µM |  |  | 1.35 µM |  |  | 0.451 µM | 1.38 µM
N=C(c1ccccc1)N(c1ccccc1)c1ccccc1 | > 100 µM | > 100 µM | > 100 µM |  | > 100 µM |  | > 100 µM |  | > 100 µM |  |  |  |  |  |  |  |  |  |  | 
CC1=NN(C(=O)c2ccccc2O)C(=O)/C1=C/c1ccc([N+](=O)[O-])cc1 | 2.57 µM and 2.52 µM |  |  |  | > 100 µM | > 100 µM | > 100 µM |  | > 100 µM |  | 0.476 µM |  | 0.328 µM | 0.44 µM | 0.779 µM | 1.6 µM | 0.414 µM | 0.216 µM | 2.34 µM | 0.932 µM
N#Cc1cccc(N2C(=O)c3c(c(-c4ccccc4)c(-c4ccc(Sc5ccc(-c6c(-c7ccccc7)c7c(c(-c8ccccc8)c6-c6ccccc6)C(=O)N(c6cccc(C#N)c6)C7=O)cc5)cc4)c(-c4ccccc4)c3-c3ccccc3)C2=O)c1 | > 100 µM | > 100 µM | > 100 µM | > 100 µM | > 100 µM |  | > 100 µM | > 100 µM | > 100 µM | > 100 µM |  |  |  |  |  |  |  |  |  | 
C1=C(c2ccccc2)CN(c2ccccc2)OC1 | > 100 µM | > 100 µM |  | > 100 µM | > 100 µM | > 100 µM | > 100 µM | > 100 µM |  | > 100 µM |  |  |  |  |  |  |  |  |  | 
Nc1ncnc2c1ncn2C1OC(COP(=O)(O)CP(=O)(O)O)C(O)C1O (configuration not stated) | > 100 µM | > 100 µM | > 100 µM | > 100 µM | > 100 µM | > 100 µM |  | > 100 µM | > 100 µM | > 100 µM |  |  |  |  |  |  |  |  |  | 
COc1cc(-c2nn3c(/C=C4/C(=O)Nc5ccccc54)c(-c4ccc(C)cc4)nc3s2)cc(OC)c1OC | 96 µM | 23.3 µM | 13.8 µM | > 100 µM | > 100 µM | 39.7 µM | > 100 µM |  |  | > 100 µM | 12.9 µM | 4.14 µM | 2.59 µM | 4.75 µM | > 100 µM | 15.2 µM | 1.98 µM |  |  | 2.68 µM
Cc1cccc(C(=O)c2cccc3ccccc23)c1C(=O)O | > 100 µM | > 100 µM | > 100 µM | > 100 µM |  | > 100 µM | > 100 µM | > 100 µM | > 100 µM | > 100 µM |  |  |  |  |  |  |  |  |  | 
